# Experimental data taken from PMC11167047 (Cell Death Discovery, 2024).
# How the values were obtained:
# Experiment in all cases: kinome screen (33PanQinase)
# Assay type in all cases: biochemical
# AKT1 = target: T1, AKT1 (Homo sapiens, UniProt P31749)
# T1 construct: purchased Reaction Biology Europe GmbH (formerly ProQinase)
# Procedure: (§1) The Kinome Screening was performed by Reaction Biology Europe GmbH (http://reactionbiology.com; Freiburg i. Br., Germany).
# SNK = target: T2, SNK (Homo sapiens, UniProt Q9NYY3)
# T2 construct: purchased Reaction Biology Europe GmbH (formerly ProQinase)
# Procedure: as §1
# PKCι = target: T3, PKCι (Homo sapiens, UniProt P41743)
# T3 construct: purchased Reaction Biology Europe GmbH (formerly ProQinase)
# T3 sequence (P41743 1-596): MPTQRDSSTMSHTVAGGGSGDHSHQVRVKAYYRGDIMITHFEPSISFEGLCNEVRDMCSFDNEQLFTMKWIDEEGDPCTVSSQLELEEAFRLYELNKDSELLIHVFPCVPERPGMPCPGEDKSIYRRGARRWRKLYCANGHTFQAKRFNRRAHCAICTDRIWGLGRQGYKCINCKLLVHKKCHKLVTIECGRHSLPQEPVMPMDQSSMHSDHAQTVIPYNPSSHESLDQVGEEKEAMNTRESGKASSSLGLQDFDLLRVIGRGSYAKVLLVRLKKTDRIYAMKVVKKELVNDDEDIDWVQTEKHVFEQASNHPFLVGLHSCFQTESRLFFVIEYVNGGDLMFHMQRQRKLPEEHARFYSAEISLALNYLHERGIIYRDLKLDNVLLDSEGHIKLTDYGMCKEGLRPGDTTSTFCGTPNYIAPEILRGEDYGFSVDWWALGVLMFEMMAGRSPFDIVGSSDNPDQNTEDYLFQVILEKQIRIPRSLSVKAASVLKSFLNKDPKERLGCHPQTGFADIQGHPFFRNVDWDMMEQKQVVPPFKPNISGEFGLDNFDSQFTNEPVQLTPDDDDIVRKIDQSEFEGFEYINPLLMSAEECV
# Procedure: as §1
# IGF1R = target: T4, IGF1R (Homo sapiens, UniProt P08069)
# T4 construct: purchased Reaction Biology Europe GmbH (formerly ProQinase)
# Procedure: as §1
# DYRK3 = target: T5, DYRK3 (Homo sapiens, UniProt O43781)
# T5 construct: purchased Reaction Biology Europe GmbH (formerly ProQinase)
# T5 sequence (O43781 1-588): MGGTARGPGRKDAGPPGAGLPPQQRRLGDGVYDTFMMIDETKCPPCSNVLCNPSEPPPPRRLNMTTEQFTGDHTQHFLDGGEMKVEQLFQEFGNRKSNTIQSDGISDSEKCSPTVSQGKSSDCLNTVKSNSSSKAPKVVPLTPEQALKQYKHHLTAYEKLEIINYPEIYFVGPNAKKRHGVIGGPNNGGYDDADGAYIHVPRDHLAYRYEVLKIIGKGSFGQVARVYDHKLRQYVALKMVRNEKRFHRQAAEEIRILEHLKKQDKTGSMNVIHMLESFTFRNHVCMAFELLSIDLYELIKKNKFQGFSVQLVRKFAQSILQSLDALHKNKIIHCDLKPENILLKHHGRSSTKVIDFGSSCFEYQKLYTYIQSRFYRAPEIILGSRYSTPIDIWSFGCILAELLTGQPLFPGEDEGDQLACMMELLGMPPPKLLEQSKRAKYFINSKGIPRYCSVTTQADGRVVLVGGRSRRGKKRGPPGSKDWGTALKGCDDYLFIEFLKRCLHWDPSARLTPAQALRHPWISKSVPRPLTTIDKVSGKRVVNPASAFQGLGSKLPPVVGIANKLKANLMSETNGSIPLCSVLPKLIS
# Procedure: as §1
# ACVR2B = target: T6, ACVR2B (Homo sapiens, UniProt Q13705)
# T6 construct: purchased Reaction Biology Europe GmbH (formerly ProQinase)
# Procedure: as §1
# ERK1 = target: T7, ERK1 (Homo sapiens, UniProt P27361)
# T7 construct: purchased Reaction Biology Europe GmbH (formerly ProQinase)
# Procedure: as §1
# RPS6KA4 = target: T8, RPS6KA4 (Homo sapiens, UniProt O75676)
# T8 construct: purchased Reaction Biology Europe GmbH (formerly ProQinase)
# Procedure: as §1
# EEF2K = target: T9, EEF2K (Homo sapiens, UniProt O00418)
# T9 construct: purchased Reaction Biology Europe GmbH (formerly ProQinase)
# T9 sequence (O00418 1-725): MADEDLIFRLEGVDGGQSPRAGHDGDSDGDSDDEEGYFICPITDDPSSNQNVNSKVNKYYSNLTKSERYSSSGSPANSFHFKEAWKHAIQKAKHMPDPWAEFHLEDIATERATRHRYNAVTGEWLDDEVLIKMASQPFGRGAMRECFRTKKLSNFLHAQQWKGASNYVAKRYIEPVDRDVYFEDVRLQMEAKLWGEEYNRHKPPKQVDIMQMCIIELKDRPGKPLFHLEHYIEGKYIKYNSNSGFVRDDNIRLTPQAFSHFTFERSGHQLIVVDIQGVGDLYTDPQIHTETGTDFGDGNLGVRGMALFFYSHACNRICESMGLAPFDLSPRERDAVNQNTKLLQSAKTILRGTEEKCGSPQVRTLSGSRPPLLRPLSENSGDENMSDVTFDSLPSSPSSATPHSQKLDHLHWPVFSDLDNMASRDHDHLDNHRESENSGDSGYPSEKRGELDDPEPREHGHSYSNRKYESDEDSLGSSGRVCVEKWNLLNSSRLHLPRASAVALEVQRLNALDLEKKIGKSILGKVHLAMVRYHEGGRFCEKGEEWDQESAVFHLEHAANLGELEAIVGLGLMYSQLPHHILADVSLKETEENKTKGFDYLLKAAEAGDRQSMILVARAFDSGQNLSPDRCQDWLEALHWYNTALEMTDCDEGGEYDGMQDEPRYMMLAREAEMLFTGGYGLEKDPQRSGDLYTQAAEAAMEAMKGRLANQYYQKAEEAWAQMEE
# Procedure: as §1
# FAK = target: T10, FAK (Homo sapiens, UniProt Q05397)
# T10 construct: purchased Reaction Biology Europe GmbH (formerly ProQinase)
# Procedure: as §1
# CAMK1D = target: T11, CAMK1D (Homo sapiens, UniProt Q8IU85)
# T11 construct: purchased Reaction Biology Europe GmbH (formerly ProQinase)
# Procedure: as §1
# T10 sequence (Q05397 whole entry): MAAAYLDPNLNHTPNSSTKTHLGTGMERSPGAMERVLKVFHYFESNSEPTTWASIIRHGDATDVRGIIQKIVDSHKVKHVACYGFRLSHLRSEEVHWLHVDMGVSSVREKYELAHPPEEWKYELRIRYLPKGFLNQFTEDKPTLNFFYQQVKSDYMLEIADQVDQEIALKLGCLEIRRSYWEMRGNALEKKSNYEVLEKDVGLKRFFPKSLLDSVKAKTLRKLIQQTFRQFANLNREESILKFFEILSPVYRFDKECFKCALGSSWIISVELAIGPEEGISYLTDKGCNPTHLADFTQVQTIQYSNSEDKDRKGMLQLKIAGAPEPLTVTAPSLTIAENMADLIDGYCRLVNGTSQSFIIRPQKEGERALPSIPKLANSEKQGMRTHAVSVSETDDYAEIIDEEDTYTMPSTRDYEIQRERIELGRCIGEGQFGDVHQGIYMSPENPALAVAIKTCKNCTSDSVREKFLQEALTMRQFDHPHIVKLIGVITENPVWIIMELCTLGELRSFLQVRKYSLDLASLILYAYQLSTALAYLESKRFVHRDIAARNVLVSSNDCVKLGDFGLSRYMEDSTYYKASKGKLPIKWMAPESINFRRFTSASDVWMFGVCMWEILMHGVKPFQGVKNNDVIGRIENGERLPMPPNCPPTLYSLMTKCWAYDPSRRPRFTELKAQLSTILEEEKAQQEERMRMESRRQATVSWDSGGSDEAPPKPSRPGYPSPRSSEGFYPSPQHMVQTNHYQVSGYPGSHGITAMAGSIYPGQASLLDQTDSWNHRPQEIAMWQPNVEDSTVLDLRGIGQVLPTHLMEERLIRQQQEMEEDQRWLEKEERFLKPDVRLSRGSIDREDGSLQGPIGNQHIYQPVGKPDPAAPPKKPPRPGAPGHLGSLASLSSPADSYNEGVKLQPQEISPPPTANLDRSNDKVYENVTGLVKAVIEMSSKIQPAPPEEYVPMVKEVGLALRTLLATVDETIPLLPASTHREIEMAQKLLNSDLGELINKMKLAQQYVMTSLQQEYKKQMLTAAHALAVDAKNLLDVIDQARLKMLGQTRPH
# T7 sequence (P27361 whole entry): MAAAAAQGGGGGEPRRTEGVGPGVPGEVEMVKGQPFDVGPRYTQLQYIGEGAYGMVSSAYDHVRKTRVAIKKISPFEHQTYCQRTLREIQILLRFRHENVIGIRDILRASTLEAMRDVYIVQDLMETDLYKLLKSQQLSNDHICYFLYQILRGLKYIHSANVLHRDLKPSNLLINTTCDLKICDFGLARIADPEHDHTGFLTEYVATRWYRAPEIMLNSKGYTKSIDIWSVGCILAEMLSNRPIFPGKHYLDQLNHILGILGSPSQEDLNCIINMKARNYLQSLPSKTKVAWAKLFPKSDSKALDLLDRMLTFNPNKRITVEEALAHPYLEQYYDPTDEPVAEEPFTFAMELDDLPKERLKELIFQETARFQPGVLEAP
# T6 sequence (Q13705 19-512): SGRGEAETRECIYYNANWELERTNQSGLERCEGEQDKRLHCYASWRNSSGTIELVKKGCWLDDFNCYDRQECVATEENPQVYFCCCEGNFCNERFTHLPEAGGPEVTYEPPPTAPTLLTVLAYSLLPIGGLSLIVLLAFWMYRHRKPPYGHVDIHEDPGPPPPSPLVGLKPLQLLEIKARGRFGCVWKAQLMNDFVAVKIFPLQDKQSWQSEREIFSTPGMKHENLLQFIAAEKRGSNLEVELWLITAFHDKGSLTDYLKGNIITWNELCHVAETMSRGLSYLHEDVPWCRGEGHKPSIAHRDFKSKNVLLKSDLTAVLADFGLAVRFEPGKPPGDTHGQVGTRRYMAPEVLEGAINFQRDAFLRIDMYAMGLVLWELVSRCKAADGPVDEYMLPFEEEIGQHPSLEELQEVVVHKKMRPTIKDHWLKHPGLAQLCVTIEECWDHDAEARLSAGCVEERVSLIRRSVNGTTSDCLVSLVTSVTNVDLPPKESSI
# T8 sequence (O75676 whole entry): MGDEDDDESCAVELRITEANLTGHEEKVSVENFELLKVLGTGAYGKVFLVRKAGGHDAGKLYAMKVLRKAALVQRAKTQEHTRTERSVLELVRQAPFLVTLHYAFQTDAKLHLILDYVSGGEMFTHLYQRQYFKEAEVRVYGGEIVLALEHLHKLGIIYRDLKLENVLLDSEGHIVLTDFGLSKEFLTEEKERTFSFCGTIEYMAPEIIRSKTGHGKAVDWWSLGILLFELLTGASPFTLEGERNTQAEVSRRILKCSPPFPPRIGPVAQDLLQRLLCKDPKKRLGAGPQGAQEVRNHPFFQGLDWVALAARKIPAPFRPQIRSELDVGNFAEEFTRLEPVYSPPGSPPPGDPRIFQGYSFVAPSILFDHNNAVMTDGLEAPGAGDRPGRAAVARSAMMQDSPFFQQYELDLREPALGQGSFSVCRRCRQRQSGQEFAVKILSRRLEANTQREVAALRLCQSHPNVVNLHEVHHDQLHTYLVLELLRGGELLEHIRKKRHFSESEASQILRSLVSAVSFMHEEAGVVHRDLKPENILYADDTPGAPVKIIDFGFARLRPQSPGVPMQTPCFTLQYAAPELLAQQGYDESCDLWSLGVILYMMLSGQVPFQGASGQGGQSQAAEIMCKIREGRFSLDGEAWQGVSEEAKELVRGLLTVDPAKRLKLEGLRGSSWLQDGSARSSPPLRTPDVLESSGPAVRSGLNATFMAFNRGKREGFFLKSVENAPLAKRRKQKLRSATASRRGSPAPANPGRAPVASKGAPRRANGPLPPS
# T4 sequence (P08069 31-1367): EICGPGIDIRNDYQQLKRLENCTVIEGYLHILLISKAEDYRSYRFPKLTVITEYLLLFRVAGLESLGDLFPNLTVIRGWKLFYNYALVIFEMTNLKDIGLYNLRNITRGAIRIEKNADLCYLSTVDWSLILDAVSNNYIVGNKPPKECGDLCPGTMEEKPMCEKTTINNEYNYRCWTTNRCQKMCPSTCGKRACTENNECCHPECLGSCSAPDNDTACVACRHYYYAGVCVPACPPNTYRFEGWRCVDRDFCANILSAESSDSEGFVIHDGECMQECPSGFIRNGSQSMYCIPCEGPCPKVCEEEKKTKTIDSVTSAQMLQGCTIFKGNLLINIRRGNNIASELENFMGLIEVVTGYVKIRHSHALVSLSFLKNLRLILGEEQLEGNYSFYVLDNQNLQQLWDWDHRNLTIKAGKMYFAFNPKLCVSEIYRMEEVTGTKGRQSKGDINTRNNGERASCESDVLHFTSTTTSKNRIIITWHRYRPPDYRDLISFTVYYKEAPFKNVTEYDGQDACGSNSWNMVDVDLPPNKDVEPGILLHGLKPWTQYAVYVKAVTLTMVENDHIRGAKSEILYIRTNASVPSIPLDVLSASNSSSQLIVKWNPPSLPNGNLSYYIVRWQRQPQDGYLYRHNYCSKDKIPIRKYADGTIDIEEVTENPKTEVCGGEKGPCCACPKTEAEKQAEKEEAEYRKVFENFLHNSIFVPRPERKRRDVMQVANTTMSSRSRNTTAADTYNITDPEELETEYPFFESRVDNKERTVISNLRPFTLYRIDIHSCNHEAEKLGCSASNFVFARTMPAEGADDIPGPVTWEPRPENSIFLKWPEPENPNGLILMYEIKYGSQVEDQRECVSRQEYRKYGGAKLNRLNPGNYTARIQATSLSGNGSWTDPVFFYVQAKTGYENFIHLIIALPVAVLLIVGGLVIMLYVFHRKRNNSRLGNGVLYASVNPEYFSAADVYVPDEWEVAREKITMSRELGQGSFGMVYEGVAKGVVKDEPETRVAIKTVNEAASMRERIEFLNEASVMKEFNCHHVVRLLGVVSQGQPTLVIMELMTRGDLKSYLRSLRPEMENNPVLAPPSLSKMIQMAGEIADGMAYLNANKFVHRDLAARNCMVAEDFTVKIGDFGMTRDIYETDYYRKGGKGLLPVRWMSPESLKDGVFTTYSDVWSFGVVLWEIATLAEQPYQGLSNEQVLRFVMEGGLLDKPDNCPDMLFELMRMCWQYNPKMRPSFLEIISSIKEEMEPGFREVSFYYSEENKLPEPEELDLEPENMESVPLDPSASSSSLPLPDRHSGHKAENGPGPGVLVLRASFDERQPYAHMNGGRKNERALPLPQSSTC
# T2 sequence (Q9NYY3 whole entry): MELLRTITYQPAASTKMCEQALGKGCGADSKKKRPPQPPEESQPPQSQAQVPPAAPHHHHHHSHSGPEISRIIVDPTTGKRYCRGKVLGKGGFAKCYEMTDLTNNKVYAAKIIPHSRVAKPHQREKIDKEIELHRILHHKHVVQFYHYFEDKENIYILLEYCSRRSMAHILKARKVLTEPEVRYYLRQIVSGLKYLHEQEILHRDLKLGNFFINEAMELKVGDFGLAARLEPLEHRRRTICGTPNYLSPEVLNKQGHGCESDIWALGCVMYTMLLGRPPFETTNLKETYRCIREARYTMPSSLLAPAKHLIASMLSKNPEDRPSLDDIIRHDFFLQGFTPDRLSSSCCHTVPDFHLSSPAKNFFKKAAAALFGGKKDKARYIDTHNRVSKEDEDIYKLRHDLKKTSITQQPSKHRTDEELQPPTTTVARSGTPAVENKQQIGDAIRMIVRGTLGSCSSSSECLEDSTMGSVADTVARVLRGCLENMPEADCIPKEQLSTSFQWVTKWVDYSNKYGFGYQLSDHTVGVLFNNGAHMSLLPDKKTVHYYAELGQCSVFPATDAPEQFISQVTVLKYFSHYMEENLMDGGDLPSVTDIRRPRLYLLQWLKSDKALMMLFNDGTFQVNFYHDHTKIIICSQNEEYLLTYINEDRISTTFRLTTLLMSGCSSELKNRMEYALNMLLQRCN
SMILES,residual kinase activity (AKT1; 0.3 µM),residual kinase activity (SNK; 0.3 µM),residual kinase activity (PKCι; 0.3 µM),residual kinase activity (IGF1R; 0.3 µM),residual kinase activity (DYRK3; 0.3 µM),residual kinase activity (ACVR2B; 0.3 µM),residual kinase activity (ERK1; 0.3 µM),residual kinase activity (RPS6KA4; 0.3 µM),residual kinase activity (EEF2K; 0.3 µM),residual kinase activity (FAK; 0.3 µM),residual kinase activity (CAMK1D; 0.3 µM),also measured
COc1ccnc2[nH]cc(-c3cc(N)nc(N)c3)c12 [meriolin 16],70 % of control,98 % of control,94 % of control,99 % of control,2 % of control,74 % of control,96 % of control,89 % of control,89 % of control,89 % of control,81 % of control,residual kinase activity (AKT1; 0.03 µM): 96 % of control; residual kinase activity (SNK; 0.03 µM): 96 % of control; residual kinase activity (PKCι; 0.03 µM): 105 % of control; residual kinase activity (IGF1R; 0.03 µM): 116 % of control; residual kinase activity (DYRK3; 0.03 µM): 27 % of control; residual kinase activity (ACVR2B; 0.03 µM): 81 % of control; residual kinase activity (ERK1; 0.03 µM): 111 % of control; residual kinase activity (RPS6KA4; 0.03 µM): 90 % of control; residual kinase activity (EEF2K; 0.03 µM): 96 % of control; residual kinase activity (FAK; 0.03 µM): 102 % of control; residual kinase activity (CAMK1D; 0.03 µM): 102 % of control
c1ccc(CNc2cc(-c3c[nH]c4ncccc34)ccn2)cc1 [meriolin 36],89 % of control,94 % of control,75 % of control,128 % of control,59 % of control,22 % of control,72 % of control,71 % of control,84 % of control,85 % of control,70 % of control,residual kinase activity (AKT1; 3 µM): 41 % of control; residual kinase activity (SNK; 3 µM): 43 % of control; residual kinase activity (PKCι; 3 µM): 32 % of control; residual kinase activity (IGF1R; 3 µM): 83 % of control; residual kinase activity (DYRK3; 3 µM): 14 % of control; residual kinase activity (ACVR2B; 3 µM): 5 % of control; residual kinase activity (ERK1; 3 µM): 37 % of control; residual kinase activity (RPS6KA4; 3 µM): 29 % of control; residual kinase activity (EEF2K; 3 µM): 97 % of control; residual kinase activity (FAK; 3 µM): 60 % of control; residual kinase activity (CAMK1D; 3 µM): 38 % of control
